The results in this text go back to US10689331B2, “IDO inhibitors” (Bristol-Myers Squibb Company, priority 2015, dated 2020).

SMILES strings stand for the structures.

The term IC50 denotes the concentration needed to halve the response being measured.

For the test, the target named is T1, human IDO1 (Homo sapiens, UniProt P14902).
T1 construct: expressed in transfected cells
T1 sequence (P14902 whole entry): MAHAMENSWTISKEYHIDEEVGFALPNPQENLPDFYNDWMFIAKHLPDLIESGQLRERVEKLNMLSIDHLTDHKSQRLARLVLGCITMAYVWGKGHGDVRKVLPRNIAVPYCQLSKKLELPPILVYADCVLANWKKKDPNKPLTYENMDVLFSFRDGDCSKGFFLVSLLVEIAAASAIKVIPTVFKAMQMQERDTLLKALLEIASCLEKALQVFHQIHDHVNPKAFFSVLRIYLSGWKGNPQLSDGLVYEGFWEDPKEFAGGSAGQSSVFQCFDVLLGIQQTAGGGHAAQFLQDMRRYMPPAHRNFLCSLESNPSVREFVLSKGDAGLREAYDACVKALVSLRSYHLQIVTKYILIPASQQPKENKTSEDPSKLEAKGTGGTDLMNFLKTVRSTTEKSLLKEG
Description: HEK Human IDO-1 inhibition assay (kynurenine readout, Ehrlich reagent, absorbance 490 nm). Type of test: cell-based. The settings on record: human IDO1/HEK293 cells, incubated 20 hours with compound; 500 nM reference standard = 100% inhibition. Put shortly: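 HEK293 cells stably expressing human IDO1, treated with compound for 20 h at 37 °C in phenol red-free RPMI/10% FBS. Kynurenine detected after TCA (0.2% final, 50 °C, 30 min) by Ehrlich reagent absorbance at 490 nm; IC50 normalised to 500 nM reference standard (100%) and DMSO (0%).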
`CC(C)CN(c1ccc(OC(C)C(=O)O)cc1NC(=O)Nc1ccc(Cl)cc1F)C1CCOC1` (single isomer, unassigned) [Example 146-2, 2-(3-(3-(4-chloro-2-fluorophenyl)ureido)-4-(isobutyl(tetrahydrofuran-3-yl)amino)phenoxy)propanoic acid]: the IC50 was below 100 nM. For the compound `CC(C)CN(c1ccc(OCC(=O)O)cc1NC(=O)Nc1ccc(Cl)cc1F)C1CCCCC1` [Example 1, 2-(3-(3-(4-chloro-2-fluorophenyl)ureido)-4-(cyclohexyl(isobutyl)amino)phenoxy)acetic acid], the IC50 is below 5 nM. In the case of `CC(C)CN(c1ccc(OCC(=O)O)cc1NC(=O)Nc1cncnc1)C1CCCCC1` [Example 2, 2-(4-(cyclohexyl(isobutyl)amino)-3-(3-(pyrimidin-5-yl)ureido)phenoxy)acetic acid], the concentration for half-maximal inhibition (IC50) was at least 100 nM.

For `CC(C)CN(c1ccc(OCC(=O)O)cc1NC(=O)Nc1cccnc1)C1CCCCC1` [Example 3, 2-(4-(cyclohexyl(isobutyl)amino)-3-(3-(pyridin-3-yl)ureido)phenoxy)acetic acid], the IC50 was at least 100 nM. To `Cc1cc(NC(=O)Nc2cc(OCC(=O)O)ccc2N(CC(C)C)C2CCCCC2)on1` [Example 4, 2-(4-(cyclohexyl(isobutyl)amino)-3-(3-(3-methylisoxazol-5-yl)ureido)phenoxy)acetic acid] belongs below 100 nM; to `CC(C)CN(c1ccc(OCC(=O)O)cc1NC(=O)Nc1ccncc1)C1CCCCC1` [Example 5, 2-(4-(cyclohexyl(isobutyl)amino)-3-(3-(pyridin-4-yl)ureido)phenoxy)acetic acid], at least 100 nM; to `CC(C)CN(c1ccc(OCC(=O)O)cc1NC(=O)Nc1nncs1)C1CCCCC1` [Example 6, 2-(3-(3-(1,3,4-thiadiazol-2-yl)ureido)-4-(cyclohexyl(isobutyl)amino)phenoxy)acetic acid], at least 100 nM.

For the compound `Cc1cc(NC(=O)Nc2cc(OCC(=O)O)ccc2N(CC(C)C)C2CCCCC2)no1` [Example 7, 2-(4-(cyclohexyl(isobutyl)amino)-3-(3-(5-methylisoxazol-3-yl)ureido)phenoxy)acetic acid], the IC50 is at least 100 nM. With `CC(C)CN(c1ccc(OCC(=O)O)cc1NC(=O)Nc1nnc(C(F)(F)F)s1)C1CCCCC1` [Example 8, 2-(4-(cyclohexyl(isobutyl)amino)-3-(3-(5-(trifluoromethyl)-1,3,4-thiadiazol-2-yl)ureido)phenoxy) acetic acid] the figure was at least 100 nM; with `CC(C)CN(c1ccc(OCC(=O)O)cc1NC(=O)Nc1ccc(N(C)C)cc1)C1CCCCC1` [Example 9, 2-(4-(cyclohexyl(isobutyl)amino)-3-(3-(4-(dimethylamino)phenyl)ureido)phenoxy)acetic acid], at least 100 nM; with `CC(C)CN(c1ccc(OCC(=O)O)cc1NC(=O)Nc1ccon1)C1CCCCC1` [Example 10, 2-(4-(cyclohexyl(isobutyl)amino)-3-(3-(isoxazol-3-yl)ureido)phenoxy)acetic acid], at least 100 nM. With `Cc1nnc(NC(=O)Nc2cc(OCC(=O)O)ccc2N(CC(C)C)C2CCCCC2)s1` [Example 11, 2-(4-(cyclohexyl(isobutyl)amino)-3-(3-(5-methyl-1,3,4-thiadiazol-2-yl)ureido)phenoxy)acetic acid] the figure was at least 100 nM; with `CC(C)CN(c1ccc(OCC(=O)O)cc1NC(=O)Nc1nccs1)C1CCCCC1` [Example 12, 2-(4-(cyclohexyl(isobutyl)amino)-3-(3-(thiazol-2-yl)ureido)phenoxy)acetic acid], at least 100 nM; with `CC(C)CN(c1ccc(OCC(=O)O)cc1NC(=O)Nc1ccc(Oc2ccccc2)cc1)C1CCCCC1` [Example 13, 2-(4-(cyclohexyl(isobutyl)amino)-3-(3-(4-phenoxyphenyl)ureido)phenoxy)acetic acid], at least 100 nM. In the case of `CC(C)CN(c1ccc(OCC(=O)O)cc1NC(=O)Nc1ccc(-c2cnco2)cc1)C1CCCCC1` [Example 14, 2-(4-(cyclohexyl(isobutyl)amino)-3-(3-(4-(oxazol-5-yl)phenyl)ureido)phenoxy)acetic acid], the IC50 is at least 100 nM.

Take `CC(C)CN(c1ccc(OCC(=O)O)cc1NC(=O)Nc1ccc(OCc2ccccc2)cc1)C1CCCCC1` [Example 15, 2-(3-(3-(4-(benzyloxy)phenyl)ureido)-4-(cyclohexyl(isobutyl)amino)phenoxy)acetic acid]: the 50% inhibitory concentration (IC50) is at least 100 nM. On to `CC(C)CN(c1ccc(OCC(=O)O)cc1NC(=O)N1CCc2ccccc21)C1CCCCC1` [Example 16, 2-(4-(cyclohexyl(isobutyl)amino)-3-(indoline-1-carboxamido)phenoxy)acetic acid], for which the IC50 is at least 100 nM. With `CC(C)CN(c1ccc(OCC(=O)O)cc1NC(=O)Nc1ccc(F)cc1)C1CCCCC1` [Example 17, 2-(4-(cyclohexyl(isobutyl)amino)-3-(3-(4-fluorophenyl)ureido)phenoxy)acetic acid] the figure was below 100 nM; with `CC(C)CN(c1ccc(OCC(=O)O)cc1NC(=O)Nc1ccccc1F)C1CCCCC1` [Example 18, 2-(4-(cyclohexyl(isobutyl)amino)-3-(3-(2-fluorophenyl)ureido)phenoxy)acetic acid], below 5 nM; with `CC(C)CN(c1ccc(OCC(=O)O)cc1NC(=O)Nc1c(F)cccc1F)C1CCCCC1` [Example 19, 2-(4-(cyclohexyl(isobutyl)amino)-3-(3-(2,6-difluorophenyl)ureido)phenoxy)acetic acid], at least 100 nM. To `CC(C)CN(c1ccc(OCC(=O)O)cc1NC(=O)Nc1cc(F)ccc1F)C1CCCCC1` [Example 20, 2-(4-(cyclohexyl(isobutyl)amino)-3-(3-(2,5-difluorophenyl)ureido)phenoxy)acetic acid] belongs below 5 nM.

For the compound `CC(C)CN(c1ccc(OCC(=O)O)cc1NC(=O)Nc1cc(Cl)ccc1F)C1CCCCC1` [Example 22, 2-(3-(3-(5-chloro-2-fluorophenyl)ureido)-4-(cyclohexyl(isobutyl)amino)phenoxy)acetic acid], the IC50 is below 100 nM. To `Cc1ccc(NC(=O)Nc2cc(OCC(=O)O)ccc2N(CC(C)C)C2CCCCC2)c(F)c1` [Example 23, 2-(4-(cyclohexyl(isobutyl)amino)-3-(3-(2-fluoro-4-methylphenyl)ureido)phenoxy) acetic acid] belongs below 5 nM; to `CC(C)CN(c1ccc(OCC(=O)O)cc1NC(=O)Nc1ccc(F)c(Cl)c1F)C1CCCCC1` [Example 24, 2-(3-(3-(3-chloro-2,4-difluorophenyl)ureido)-4-(cyclo-hexyl(isobutyl)amino)phenoxy) acetic acid], at least 100 nM. Regarding `COc1ccc(NC(=O)Nc2cc(OCC(=O)O)ccc2N(CC(C)C)C2CCCCC2)c(F)c1` [Example 25, 2-(4-(cyclohexyl(isobutyl)amino)-3-(3-(2-fluoro-4-methoxyphenyl)ureido)phenoxy)acetic acid], the half-inhibitory concentration (IC50) was below 5 nM. With `CC(C)CN(c1ccc(OCC(=O)O)cc1NC(=O)Nc1cccc(Cl)c1F)C1CCCCC1` [Example 26, 2-(3-(3-(3-chloro-2-fluorophenyl)ureido)-4-(cyclo-hexyl(isobutyl)amino)phenoxy) acetic acid], the concentration for half-maximal inhibition (IC50) is at least 100 nM.

For `CC(C)CN(c1ccc(OCC(=O)O)cc1NC(=O)Nc1cccc(C(F)(F)F)c1F)C1CCCCC1` [Example 27, 2-(4-(cylclohexyl(isobutyl)amino)-3-(3-(2-fluoro-3-(trifluoromethyl)phenyl)ureido)phenoxy)acetic acid], the half-maximal inhibitory concentration (IC50) is at least 100 nM. To `Cc1c(F)cccc1NC(=O)Nc1cc(OCC(=O)O)ccc1N(CC(C)C)C1CCCCC1` [Example 28, 2-(4-(cyclohexyl(isobutyl)amino)-3-(3-(3-fluoro-2-methylphenyl)ureido)phenoxy)acetic acid] belongs at least 100 nM. `COc1cc(F)c(NC(=O)Nc2cc(OCC(=O)O)ccc2N(CC(C)C)C2CCCCC2)cc1F` [Example 29, 2-(4-(cyclohexyl(isobutyl)amino)-3-(3-(2,5-difluoro-4-methoxy-phenyl)ureido)phenoxy)acetic acid]: the IC50 is below 100 nM. Consider `Cc1ccc(F)cc1NC(=O)Nc1cc(OCC(=O)O)ccc1N(CC(C)C)C1CCCCC1` [Example 30, 2-(4-(cyclohexyl(isobutyl)amino)-3-(3-(5-fluoro-2-methylphenyl)ureido)phenoxy)acetic acid], for which the IC50 was at least 100 nM. To `CC(C)CN(c1ccc(OCC(=O)O)cc1NC(=O)Nc1ccc(F)c(F)c1)C1CCCCC1` [Example 31, 2-(4-(cyclohexyl(isobutyl)amino)-3-(3-(3,4-difluorophenyl)ureido)phenoxy)acetic acid] belongs below 100 nM; to `CC(C)CN(c1ccc(OCC(=O)O)cc1NC(=O)Nc1cc(F)cc(F)c1)C1CCCCC1` [Example 32, 2-(4-(cyclohexyl(isobutyl)amino)-3-(3-(3,5-difluorophenyl)ureido)phenoxy)acetic acid], at least 100 nM.

As to `Cc1ccc(NC(=O)Nc2cc(OCC(=O)O)ccc2N(CC(C)C)C2CCCCC2)cc1F` [Example 33, 2-(4-(cyclohexyl(isobutyl)amino)-3-(3-(3-fluoro-4-methylphenyl)ureido)phenoxy)acetic acid], the half-inhibitory concentration (IC50) is below 100 nM. For `COc1ccc(NC(=O)Nc2cc(OCC(=O)O)ccc2N(CC(C)C)C2CCCCC2)cc1F` [Example 34, 2-(4-(cyclohexyl(isobutyl)amino)-3-(3-(3-fluoro-4-methoxyphenyl)ureido)phenoxy) acetic acid], the IC50 was at least 100 nM. In the case of `CC(C)CN(c1ccc(OCC(=O)O)cc1NC(=O)Nc1ccc(C(F)(F)F)c(F)c1)C1CCCCC1` [Example 35, 2-(4-(cyclohexyl(isobutyl)amino)-3-(3-(3-fluoro-4-(trifluoromethyl)phenyl)ureido)phenoxy)acetic acid], the half-inhibitory concentration (IC50) was at least 100 nM. With `CC(C)CN(c1ccc(OCC(=O)O)cc1NC(=O)Nc1ccc(Cl)c(F)c1)C1CCCCC1` [Example 36, 2-(3-(3-(4-chloro-3-fluorophenyl)ureido)-4-(cyclohexyl(isobutyl)amino)phenoxy)acetic acid] the figure was below 100 nM.
